From US12421257B2, “Compositions and methods for inhibiting group II intron RNA” (YALE UNIVERSITY, priority 2018, dated 2025)
Values after ≈ are worked out from the molar mass of the structure shown. “Also recorded” adds a separate entry of the source.

Assays:
ai5γ group II intron = experiment: Radioanalytic self-splicing assay of SE RNA (Ki); assay type: biochemical, Saccharomyces cerevisiae; settings: 8 mM MgCl2, 100 mM KCl, pH 7.5, 30° C.
Description: Internally labeled SE RNA (2 nM) was incubated with various concentrations of inhibitor compound under near-physiological conditions (in 50 mM MOPS, pH 7.5, 8 mM MgCl2, 100 mM KCl) at 30° C. Aliquots at different time points were quenched and analyzed on 5% denaturing polyacrylamide gel as previously described (Daniels et al., 1996, Journal of molecular biology, 256:31-49). Data were fit to a single-exponential equation to determine the first order rate constants (kobs). The latter were then plotted against the concentration of the inhibitor and fit to the equation for non-competitive inhibition to determine Ki values: kobs=kmax/(1+[I]/Ki), where kobs and kmax are the first order rate constants measured in the presence and in the absence of the inhibitor, respectively, [I] is the concentration of the inhibitor and Ki is the inhibition constant. Experiments were performed four times for API-014, three times for APY-090, Intronistat A, and Intronistat B and twice for the remaining compounds to ensure reproducibility. Data represent average±s.e.m.

[1] = system: ai5γ group II intron (D135 ribozyme); experiment: Fluorescent D135 ribozyme cleavage assay (IC50); assay type: biochemical, Saccharomyces cerevisiae; settings: for IC50: D135 ribozyme cleavage of substrate 17/2 DL, 100 mM MgCl2, 500 mM KCl, 37° C., 10 minutes
Description: The D135 ribozyme (Su et al., 2005, Nucleic Acids Res, 33:6674-6687), fluorescently labeled oligo substrate 17/2 DL (FIG. 1A-FIG. 1D) (both at 20 nM final concentrations in 50 mM MOPS, pH 7.0, 100 mM MgCl2, 0.5M KCl), and the test compounds (final concentration of 10 μM in 50 mM MOPS, pH 7.0, 100 mM MgCl2, 0.5M KCl) were aliquoted onto black non-binding 384-well plates (Corning 3757) using the multidrop combi (ThermoFisherScientific) and pintool (V & P Scientific). The reaction mixtures were incubated at 37° C. for 45 minutes, then the reaction was quenched with 100 mM EDTA and fluorescence intensity was analyzed on a Tecan Infinite multimode plate reader (λex 520 nm, λem 560 nm, 5 nm bandwidth). Data were normalized to untreated wells and wells lacking the D135 ribozyme, and percent of inhibition was calculated using ActivityBase (IDBS). The Z′-factor was calculated as described (Zhang et al., 1999, J Biomol Screen, 4:67-73): Z′=1−3×(σp+σn)/|μp−μn|, • where μp and σn are mean value and standard deviation for the positive control (substrate only), and where μn and σn are mean value and standard deviation for the negative control (no compound). The average Z′-factor from the screen was 0.83±0.03. IC50 Measurement for the Small Molecule Inhibition of the D135 Ribozyme Cleavage Reaction.
Black 96-well plates (Corning 3695) were filled with 50 μl of solution containing 20 nM D135 ribozyme, 20 nM double-labeled substrate 17/2 DL and small molecule inhibitor in 50 mM MOPS, pH 7.0, 100 mM MgCl2 and 500 mM KCl. Small molecule inhibitors were tested at 19 different concentrations ranging from 5 nM to 1 mM. Plates were incubated at 37° C. for 10 minutes, then reaction mixtures were quenched with 100 mM EDTA and analyzed on the Synergy H1 plate reader (BioTek). Each experiment was performed in triplicate. Data were fit to a 4-parameter logistic function c+(d−c)/(1+(x/a)^b), where a is the IC50, b is the slope parameter, c is the minimum response and d is the maximum response. Data are reported as average±s.e.m

HEK-293T cells = experiment: Cytotoxicity in HEK-293T cells (Cell Titer Glo); assay type: cell-based, human; settings: Homo sapiens, cytotoxicity, 24 hours with compound, read-out: IC50 HEK-293
Description: HEK-293T cells were cultured in Dulbecco's Modified Eagle's Medium (DMEM) (Gibco) supplemented with 10% Fetal Bovine Serum (FBS, Gibco) and 100 U/ml of Penicillin-Streptomycin (Gibco) at 37° C. and 5% CO2. For the cytotoxicity experiments, cells were aliquoted into black 96-well plates with a clear bottom (Corning 3603) at a concentration of 10,000 cells per well. The cells were grown at 37° C., 5% CO2 for 5-6 hours, then the medium was replaced with the same medium without FBS and cells were grown at 37° C., 5% CO2 for 24 hours. Freshly prepared stock solutions of test compounds (12.8 mg/ml in DMSO) were serially diluted 1:2 with DMSO into the first 11 successive wells of a 12-well row on a 96-well plate as described above. Well 12 was used as a growth control (no compound). […] After incubation, cell viability was determined using the luminescent Cell Titer Glo cell viability assay (Promega), in which 100 μl of the assay reagent was added to each well of the assay plate. After gentle shaking for 7-10 minutes, the plates were analyzed on a Synergy H1 plate reader (BioTek). Luminescence was plotted against the compound concentration and IC50 values were determined by fitting the data to a 4-parameter logistic function c+(d−c)/(1+(x/a)^b), where a is the IC50, b is the slope parameter, c is the minimum response and d is the maximum response. Experiments were replicated to ensure reproducibility.

C. parapsilosis = experiment: MIC determination against C. parapsilosis; assay type: cell-based, Candida parapsilosis; settings: Lodderomyces parapsilosis; RPMI-1640, 35° C. or 37° C., turbidity after 24 and 48 hours
Description: Minimal inhibitory concentrations (MICs) for C. parapsilosis were determined in a final volume of 100 μl. Fresh stock solutions of control antifungal drugs (Amphotericin B and Itraconazole) and of test compounds were prepared at 3.2 mg/ml and at 12.8 mg/ml respectively in DMSO. After placing the stock in the first well, solutions of test compounds and antifungal controls were serially diluted 1:2 with DMSO into the first […] successive wells of a 12-well row on a 96-well plate (as described above). After dilution, 2.5 μl from each of these 10 wells were transferred onto a separate 96-well plate and diluted with 122.5 μl of RPMI-1640 medium (Sigma). Wells 11 and 12 contained 2.5 μl DMSO and 122.5 μl of RPMI-1640 as a positive growth control (no compound) and sterility control (no inoculum added). A 50 μl volume was taken from each of the RPMI dilutions (wells 1-12) and transferred to the wells of a third 96-well plate (assay plate), where they were mixed with an equal volume (50 μl) of freshly prepared inoculum of C. parapsilosis in RPMI-1640 medium, set at a density to provide the 0.5×10^3 to 2.5×10^3 colony forming units per 1 mL (except for the sterility control). Sterility control was mixed with 50 μl of sterile medium.
The final concentration range of the assay was 0.25-128 μg/ml for test compounds and 0.0625-32 μg/ml for Amphotericin B and Itraconazole. The final concentration of DMSO was 1%. The assay plate was incubated at 35° C. or 37° C. and visually analyzed for turbidity after 24 and 48 hours of incubation. The lowest compound concentration at which no growth was apparent is reported as the MIC. All experiments were performed in triplicate.

Row | SMILES | Ki (ai5γ group II intron) [µM] | IC50 [1] [µM] | MIC (C. parapsilosis) [µg/mL] | IC50 ([1]; listed as compound 1) [µM] | In vitro inhibitory activity, SAR statement (in words) ([1]; relative to parent scaffold) | IC50 (HEK-293T cells) [µg/mL]
1 | O=C1/C(=C/c2ccc(B(O)O)cc2)Oc2cc(O)cc(O)c21 [APY-006] | 55 |  |  |  |  | 
2 | O=C1/C(=C/c2ccc(O)c(O)c2)Oc2cc(O)cc(O)c21 [APY-007, (Z)-2-(3,4-Dihydroxybenzylidene)-4,6-dihydroxybenzofuran-3(2H)-one] | 156 ± 34 | > 100 | > 128 |  | nearly complete loss of activity; also recorded: inactivated both in vitro and in vivo | > 128
3 | O=C1/C(=C/c2cc(F)c(O)c(F)c2)Oc2cc(O)cc(O)c21 [APY-010] | 140 |  | > 128 |  |  | 0.55
4 | O=C1/C(=C/c2cc(O)c(O)c(O)c2)Oc2cc(O)ccc21 [APY-013] | 16.5 | 16.7 | 32 (≈ 112 µM) |  |  | 19
5 | COc1cccc(/C=N/NC(=O)c2ccc(B(O)O)cc2)c1O [APY-018] | 660 |  |  |  |  | 
6 | O=C(N/N=C/c1ccccc1O)c1cc(O)c(O)c(O)c1 [APY-021] | 9.4 | 14 | 32 (≈ 111 µM) |  |  | 
7 | O=C(N/N=C/c1ccc(O)cc1O)c1cc(O)c(O)c(O)c1 [APY-022] | 6.5 | 5.5 | 32 (≈ 105 µM) |  |  | 17.6
8 | COc1cc(/C=N/NC(=O)c2cc(O)c(O)c(O)c2)cc(O)c1O [APY-038] | 1.1 | 1.3 | 8 (≈ 23.9 µM) |  |  | 15.9
9 | COc1cc(CCC(=O)c2cc(O)c(O)c(O)c2)cc(OC)c1OC [APY-069] | 29 | 27 | 32 (≈ 91.9 µM) |  |  | > 128
10 | O=C(c1cc(O)c(O)c(O)c1)c1cc2cc(F)ccc2o1 [APY-070] | 1 | 4.2 | 32 (≈ 111 µM) |  |  | > 128
11 | O=C(c1cc(O)c(O)c(O)c1)c1cc2c(ccc3ccccc32)o1 [APY-071] | 0.15 | 0.3 | 16 (≈ 50 µM) |  |  | 6
12 | O=C1/C(=C/c2cc(O)c(O)c(O)c2)Oc2cc(O)cc(O)c21 [Compound 1, reference compound] | 2.1 ± 0.6 | 2.3 ± 0.4 |  | 2 |  | 

The next lines start with results.

Row | Ki (ai5γ group II intron) [µM] | IC50 [1] [µM] | MIC (C. parapsilosis) [µg/mL] | IC50 ([1]; listed as compound 1) [µM] | SMILES | In vitro inhibitory activity, SAR statement (in words) ([1]; relative to parent scaffold) | IC50 (HEK-293T cells) [µg/mL]
13 |  | 6 ± 2 | 16 (≈ 37.7 µM) |  | CN1CCC(CNC(=O)c2ccc3oc(C(=O)c4cc(O)c(O)c(O)c4)cc3c2)CC1 [NED-2023, N-((1-methylpiperidin-4-yl)methyl)-2-(3,4,5-trihydroxybenzoyl)-benzofuran-5-carboxamide] |  | 36
14 |  | > 1000 | 8 to 16 (≈ 28.5 to 57.1 µM) |  | CCCCNc1nc(-c2cc(O)c(O)c(O)c2)cs1 [NED-2034] |  | 22
15 |  | 55 ± 4 | > 128 |  | O=C(Nc1cc(O)c(O)c(O)c1)N1CCN(c2ccc(Cl)c(Cl)c2)CC1 [NED-2035] |  | 1.6
16 |  | 14 ± 1 | 8 (≈ 24.1 µM) |  | COc1ccc(/C=N/NC(=O)c2cc(O)c(O)c(O)c2)c(OC)c1 [NED-2036, N′-(2,4-dimethoxybenzylidene)-3,4,5-trihydroxybenzohydrazide] |  | 8.2
17 |  | 1.8 ± 0.5 | 16 (≈ 47.3 µM) |  | O=C(N/N=C/c1c(O)ccc2ccccc12)c1cc(O)c(O)c(O)c1 [NED-2037, (E)-3,4,5-trihydroxy-N′-((2-hydroxynaphthalen-1-yl)methylene)benzohydrazide] |  | 2.8
18 |  | > 1000 | 8 (≈ 16.2 µM) |  | Cc1[nH]c(/C=C/C(=O)c2cc(O)c(O)c(O)c2)c(C)c1C(=O)N1CCN(Cc2ccc(F)cc2)CC1 [NED-2040] |  | 7.5
19 |  | 4 ± 1 | 4 to 8 (≈ 12.7 to 25.4 µM) |  | CN(C)c1ccc(/C=N/NC(=O)c2cc(O)c(O)c(O)c2)cc1 [NED-2048, (E)-N′-(4-(dimethylamino)benzylidene)-3,4,5-trihydroxybenzohydrazide] |  | 9.8
20 |  | 3.3 ± 1 | 2 to 4 (≈ 6.21 to 12.4 µM) |  | O=C(N/N=C/c1cccc2ccccc12)c1cc(O)c(O)c(O)c1 [NED-2134, (E)-3,4,5-trihydroxy-N′-(naphthalen-1-ylmethylene)benzohydrazide] |  | 4.2
21 |  | 0.8 ± 0.2 | 2 (≈ 6.21 µM) |  | O=C(N/N=C/c1ccc2ccccc2c1)c1cc(O)c(O)c(O)c1 [NED-2135, (E)-3,4,5-trihydroxy-N′-(naphthalen-2-ylmethylene)benzohydrazide] |  | 2.4
22 |  | 1.35 ± 0.15 | 2 (≈ 5.68 µM) |  | COc1ccc2cc(/C=N/NC(=O)c3cc(O)c(O)c(O)c3)ccc2c1 [NED-2136] |  | 1
23 |  | 6 ± 1 | 8 (≈ 22.7 µM) |  | COc1ccc2ccccc2c1/C=N/NC(=O)c1cc(O)c(O)c(O)c1 [NED-2173, (E)-3,4,5-trihydroxy-N′-((2-methoxynaphthalen-1-yl)methylene)benzohydrazide] |  | 8.6
24 |  | 5 ± 1 | 4 to 8 (≈ 10.6 to 21.3 µM) |  | C#CCOc1ccc2ccccc2c1/C=N/NC(=O)c1cc(O)c(O)c(O)c1 [NED-2174, (E)-3,4,5-trihydroxy-N′-((2-(prop-2-yn-1-yloxy)naphthalen-1-yl)methylene)benzohydrazide] |  | 2.7
25 |  | 2.3 ± 0.8 | 4 to 8 (≈ 9.31 to 18.6 µM) |  | O=C(N/N=C/c1c(OCc2ccccn2)ccc2ccccc12)c1cc(O)c(O)c(O)c1 [NED-2175, (E)-3,4,5-trihydroxy-N′-((2-(pyridin-2-ylmethoxy)naphthalen-1-yl)methylene)benzohydrazide] |  | 14
